# Legend:
# [1] = system: PDGF-β-induced NHDF proliferation; assay: PDGF-β-induced NHDF proliferation assay; type: cell-based, human; conditions: PDGF-β 10 ng/ml; FIGS. 8-12
# Protocol: (§1) The activities of the compounds of the present invention were tested using a proliferation assay, such as the one described by N. Ali et al., J Pharmacol Sci, 2005, 98, 130-141. A defined number of cells is seeded in each well of a culture plate. In order to stimulate cell proliferation, a growth factor is added in some wells, while others remain unstimulated (basal proliferation conditions). To monitor the effects of substances of interest (oligosaccharides compounds according to the present invention) on basal and growth factor-induced cell proliferation, substances of interest are added at different concentrations (i.e. 0.1, 0.3, 1, 3, 10 or 30 μM) in presence or absence of the growth factor, respectively. After an incubation period of 24 hours, the total number of cells is estimated in all samples (generally through an indirect method, such as incorporation of radioactivity into the newly synthesised DNA or colorimetric assays based on cellular enzyme activities or metabolite production). The total number of cells for the control sample in which no substance of interest nor growth factor have been added is set to 1. The total number of cells in all the other samples is compared to this value in order to obtain the relative proliferation index.
# Typically, cells are seeded in 48 or 96-well plates. After 2 h (i.e. the time required for cells to adhere to the support) the normal culture media is replaced by a minimal essential culture media in which cells are grown for 24 h (starvation period). This step is used to reduce cell growth (cell metabolism is slowed down in order to better visualise the growth factor stimulation effect) before adding an angiogenic protein, such as a growth factor i.e. FGF-2 or PDGF-β. No growth factor is added in basal proliferation conditions (independently of the presence or absence of the oligosaccharide of the present invention). To evaluate the inhibition of the oligosaccharide compounds according to the present invention on cell proliferation, the angiogenic protein (growth factor) is added at a fixed concentration (from 5 ng/ml to 10 ng/ml) with increasing amounts of oligosaccharide compounds (0.1, 0.3, 1, 3, 10 or 30 μM), which allows the IC50 value to be estimated (i.e. the oligosaccharide concentration at which the stimulatory effect of the growth factor is inhibited by 50%).
# (§2) Following addition of the angiogenic protein (growth factor) over a 24 h stimulation period, a commercial reagent containing a substrate for a cellular enzyme is added and incubated for couple of hours. The degradation of the substrate by the enzyme leads to the production of a coloured product which is titrated by absorbance measurement. […]
# [2] = system: FGF-2-induced NHDF (Normal Human Dermal Fibroblast) cell proliferation; assay: FGF-2-induced NHDF proliferation assay; type: cell-based; conditions: compound 0.1 to 30 μM
# Protocol: as §1
# Typically, cells are seeded in 48 or 96-well plates. After 2 h (i.e. the time required for cells to adhere to the support) the normal culture media is replaced by a minimal essential culture media in which cells are grown for 24 h (starvation period). This step is used to reduce cell growth (cell metabolism is slowed down in order to better visualise the growth factor stimulation effect) before adding an angiogenic protein, such as a growth factor i.e. FGF-2 or PDGF-β. No growth factor is added in basal proliferation conditions (independently of the presence or absence of the oligosaccharide of the present invention). […]
# as §2
# In the following experiments the effects of compounds 240 and 241 (concentrations from 0.1 to 30 μM) were evaluated on FGF-2-induced NHDF (Normal Human Dermal Fibroblast) cell proliferation. […]
Structure (SMILES),inhibition of PDGF-β-induced NHDF proliferation [1],"inhibition of FGF-2-induced fibroblast proliferation ([2]; FGF-2 5 ng/ml, FIGS. 6-7)","basal NHDF proliferation ([2]; control conditions, no growth factor)"
C#CCCCOC1OC(COS(=O)(=O)[O-])C(OC2OC(C(=O)[O-])C(OC3OC(COS(=O)(=O)[O-])C(OC4OC(C(=O)[O-])C(OCc5ccccc5)C(OCc5ccccc5)C4OS(=O)(=O)[O-])C(OCc4ccccc4)C3NS(=O)(=O)[O-])C(OCc3ccccc3)C2OS(=O)(=O)[O-])C(OCc2ccccc2)C1NS(=O)(=O)[O-].[Na+].[Na+].[Na+].[Na+].[Na+].[Na+].[Na+].[Na+] (stereo not shown) [Compound 237],inhibit PDGF-β proliferation (starting in the micromolar range),,
C#CCCCOC1OC(COS(=O)(=O)[O-])C(OC2OC(C(=O)[O-])C(OC3OC(COS(=O)(=O)[O-])C(OC4OC(C(=O)[O-])C(OC5OC(COS(=O)(=O)[O-])C(OC6OC(C(=O)[O-])C(OC7OC(COS(=O)(=O)[O-])C(OC8OC(C(=O)[O-])C(OC9OC(COS(=O)(=O)[O-])C(OC%10OC(C(=O)[O-])C(OCc%11ccccc%11)C(OCc%11ccccc%11)C%10OS(=O)(=O)[O-])C(OCc%10ccccc%10)C9NS(=O)(=O)[O-])C(OCc9ccccc9)C8OS(=O)(=O)[O-])C(OCc8ccccc8)C7NS(=O)(=O)[O-])C(OCc7ccccc7)C6OS(=O)(=O)[O-])C(OCc6ccccc6)C5NS(=O)(=O)[O-])C(OCc5ccccc5)C4OS(=O)(=O)[O-])C(OCc4ccccc4)C3NS(=O)(=O)[O-])C(OCc3ccccc3)C2OS(=O)(=O)[O-])C(OCc2ccccc2)C1NS(=O)(=O)[O-].[Na+].[Na+].[Na+].[Na+].[Na+].[Na+].[Na+].[Na+].[Na+].[Na+].[Na+].[Na+].[Na+].[Na+].[Na+].[Na+].[Na+].[Na+].[Na+].[Na+] (stereo not shown) [Compound 241],inhibit PDGF-β proliferation (starting in the micromolar range),inhibit FGF-2-induced fibroblast proliferation (starting in the micromolar range),did not seem to be affected
